# Experimental data from article PMC5399312 (Journal of Experimental & Clinical Cancer Research : CR, 2017).
# Where two headings read alike, the source gives them in different places.
# Legend:
# G6P-DH = molecular target: T1, G6P-DH (Leuconostoc mesenteroides, UniProt P11411); experiment: Interference with coupling enzyme; format: biochemical
# T1 construct: purchased Roche (Switzerland)
# T1 sequence (P11411 1-486): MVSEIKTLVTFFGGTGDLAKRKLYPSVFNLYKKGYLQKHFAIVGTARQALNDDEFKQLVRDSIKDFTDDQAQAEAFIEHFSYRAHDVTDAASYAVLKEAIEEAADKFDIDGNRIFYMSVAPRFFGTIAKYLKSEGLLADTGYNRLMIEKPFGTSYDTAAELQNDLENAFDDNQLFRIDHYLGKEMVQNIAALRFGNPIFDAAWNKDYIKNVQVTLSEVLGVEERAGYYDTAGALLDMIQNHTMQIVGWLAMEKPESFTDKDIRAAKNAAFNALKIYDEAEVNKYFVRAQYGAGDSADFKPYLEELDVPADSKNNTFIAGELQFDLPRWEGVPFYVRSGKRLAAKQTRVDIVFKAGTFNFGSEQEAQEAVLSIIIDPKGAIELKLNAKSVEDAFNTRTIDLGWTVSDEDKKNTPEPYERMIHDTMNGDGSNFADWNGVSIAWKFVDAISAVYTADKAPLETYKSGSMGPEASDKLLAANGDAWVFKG
# Method: Then 85 μL assay mix containing 100 mM Tris HCl pH 8.0, 5 mM MgCl2, 200 mM Glucose, 0.8 mM ATP, 1 mM NAD^+, 0.25 Units of G6P-DH, was added.
# SW480 cells = experiment: Flow cytometric analysis for apoptosis (Annexin-V/PI); format: cell-based, human; settings: 48 h, control 0.7%
# Method: Then the cells were harvested, washed twice with ice-cold PBS, and mixed in 100 μL of 1× binding buffer (10 mM HEPES/ NaOH, pH 7.4, 140 mM NaCl, 2.5 mM CaCl2). After culturing for 15 min at room temperature in Annexin-V/PI double staining liquid (Nanjing KeyGen Biotech. Inc.), the cells were examined by flow cytometry (BD Biosciences, FACSCalibur).
# [1] = tested on: SW480 cells transfected with HK2 siRNA; experiment: HK2 siRNA knock-down, CCK-8 cytotoxicity; format: cell-based, human; settings: compared with negative control siRNA cells
# Text: SW480 cells were transfected with either two siRNAs against HK2 or one nontargeting siRNA and cultured in 6-well plates according to the manufacturer’s instructions. The target sequences of oligo siRNAs were as follows: siRNA: 5'- […] -3', nontargeting siRNA (Negative control, NC): 5'- […] -3' [21].
# SW480 cells xenograft = settings: for decrease of size and weight of tumors: 16 days, versus vehicle
# Method: All animal experiments were performed in accordance with the Guide for the Care and Use of Laboratory Animals of Tongji Medical College, Huazhong University of Science and Technology and approved by the Ethics Committee. CB-17/ SCID mice (male, 4 weeks old) were purchased from Beijing HFK Bioscience CO., LTD (Beijing, China). SW480 cells were inoculated subcutaneously (3 × 10^6 cells) into the left flank of each mouse. […] The dose volume was 0.1 mL/10 g body weight, and the weights of mice were recorded every day. Meanwhile, the tumor volumes were measured with vernier calipers and calculated by the following formula: (A × B^2)/2, where A was length and B was width of the two-dimension tumor. After animals were sacrificed, tumor weights were measured. The inhibition ratio (%) was calculated using the following equation: I% = 100% × [Wtumor (vehicle) − Wtumor (treated)]/Wtumor (vehicle)
compound,measurement,setting,value
"NC(CO)C(=O)NNCc1ccc(O)c(O)c1O (stereo not drawn) [Benz, Benserazide]",interference with G6P-DH activity,G6P-DH,No Benz interference
same,apoptotic death,SW480 cells; 75 μM,10.4%
same,apoptotic death,SW480 cells; 150 μM,22.5%
same,apoptotic death,SW480 cells; 300 μM,44.1%
same,cytotoxicity to HK2 siRNA transfected cells,[1],fewer effects
same,decrease of size and weight of tumors,SW480 cells xenograft; 300 mg/Kg per day i.p.,30.1%
same,decrease of size and weight of tumors,SW480 cells xenograft; 600 mg/Kg per day i.p.,60.3%
same,toxicity in mice,"SW480 cells xenograft; mouse, in vivo",no toxicity shown
same,body weight and histomorphology,"SW480 cells xenograft; tumor-bearing mice, daily i.p. 16 days",no remarkable loss of body weight and change of histomorphology
